# Results: patent publication US4223146A, “4,5,6,7-Tetrahydroimidazo-[4,5-c]-pyridine derivatives” (Farmitalia Carlo Erba S.p.A., priority 1978, dated 1980)
# Read-outs that look alike come from different tables or passages of the source.
# Columns and labels:
# [1] = test system: cysteamine-induced duodenal lesions; assay: Inhibition of Cysteamine-Induced Duodenal Lesions in Rats; assay type: in vivo, Sprague-Dawley rats (male); settings: Rattus norvegicus
# Procedure: (5) Inhibition of Cysteamine-Induced Duodenal Lesions in Rats.
# Six Sprague-Dawley male rats (200-225 g) were used for each group. Twenty-four hours before the test, the rats were deprived of food but allowed free access to water. Cysteamine HCl (400 mg/Kg) dissolved in physiological saline was administered subcutaneously.
# Antagonists were given orally 60 minutes, and subcutaneously 30 minutes, before the cysteamine treatment. The animals were kept fasting completely for 18-24 hours after cysteamine administration, then sacrificed by an overdose of ether.
# The stomach and duodenum of each rat were excised to determine the presence of gastroduodenal lesions. The sum of the area (mm^2) of lesions for each rat was measured under a dissecting microscope (10X) with a square grid and then used as an ulcer index. The percentage inhibition was calculated in respect of the ulcer index of the control group.
# gastric secretion = assay: Inhibition of Gastric Secretion in Rats (pylorus ligature); assay type: in vivo, Sprague-Dawley rats (male); settings: Rattus norvegicus, sc, 4 h, s.c. at the time of ligature, read-out: ED50 Antisecretory s.c.
# Procedure: (2) Inhibition of Gastric Secretion in Rats (Shay, Gastroenterology, 1945, 43, 5).
# Gastric antisecretory activity was evaluated in rats by the pylorus ligature technique. Six Sprague-Dawley male rats (110-130 g) were used for each group. Twenty-four hours before the test, the rats were deprived of food but their water supply was maintained. On the day of the operation, the pylorus was ligated under light ether anaesthesia. Four hours after the ligature, the rats were sacrificed, the stomach secretion was collected and centrifuged at 3500 r.p.m. for 10 minutes, and the volume, less sediment, was determined.
# The amount of the free hydrochloric acid in the gastric juice was determined by titration against 0.01 N sodium hydroxide, using Topfer's Indicator. Each compound was injected subcutaneously at the time of ligature.
# [2] = Anticholinergic Activity in Rats; parameters: species or system Sprague-Dawley rats (male); settings: rat, in vivo
# Procedure: (3) Anticholinergic Activity in Rats. Considering that many anti-ulcer agents display, as does atropine, a remarkable but undesired anti-cholinergic activity, some derivatives were assessed for their antagonism against chromodacryorrhea induced by carbacholine in rats. (Winburg M. et al, J. Pharm. Exp. Therap., 1949, 95, 53).
# [3] = test system: acetylsalicylic acid-induced gastric ulcers; assay: Inhibition of Acetylsalicylic Acid-Induced Gastric Ulcers in Rats; assay type: in vivo, Sprague-Dawley rats (male); settings: Rattus norvegicus, 4 h
# Procedure: (4) Inhibition of Acetylsalicylic Acid-Induced Gastric Ulcers in Rats.
# Six Sprague-Dawley male rats (200-250 g) were used for each group. Twenty-four hours before the test, the rats were deprived of food but their water supply was maintained. Acetylsalicylic acid (100 mg/Kg) suspended in 5% gum arabic solution was given orally to the rats. Antagonists, at 3 dose levels, were given orally 60 minutes, and subcutaneously 30 minutes, before the acetylsalicylic acid treatment.
# After sacrificing the animals, four hours after administration of the antagonist, the stomachs were removed, slightly inflated and immersed in 1% formalin solution for 10 minutes for fixation.
# Subsequently, the stomachs were incised along the greater curvature and the lengths of lesions measured under a dissecting microscope (10 X) with a square grid. The sum of the lengths (mm) of the lesions per rat was used as the ulcer index. The percentage inhibition was calculated in respect of the ulcer index of the control group.
# restraint ulcer = assay: Inhibition of Restraint Ulcer in Rats; assay type: in vivo, Sprague-Dawley rats (male); settings: Rattus norvegicus
# Procedure: (B 1) Inhibition of Restraint Ulcer in Rats (Bonfils et al, Therapie, 1960, 15, 1096).
# Six Sprague - Dawley male rats (100-120 g) fasted for 24 hours were used for each group. A square flexible small-mesh wire netting was used for immobilization. After 4 hours immobilization the rats were sacrificed, their stomachs were removed, and lesions counted under a dissecting microscope.
# The results obtained are reported below in Table 1, wherein the values are given as ED50.
# The compounds were administered subcutaneously (s.c.) immediately before the immobilization or orally (os) one hour before.
# Toxicity (LD50) in mice = settings: mouse, in vivo, po, os
# Procedure: Four compounds were examined also for the activity on acetylsalicyclic acid- and cysteamine-induced ulcers and their toxicity was also determined in mice.
# [4] = po, orally 60 minutes before cysteamine, read-out: ED50 Cysteamine os
# [5] = sc, s.c. 30 minutes before cysteamine, read-out: ED50 Cysteamine s.c.
# [6] = po, os, read-out: ED50 Anticholinergic os
# [7] = sc, read-out: ED50 Anticholinergic s.c.
# [8] = po, orally 60 minutes before acetylsalicylic acid, read-out: ED50 Acetylsalicilic acid os
# [9] = sc, s.c. 30 minutes before acetylsalicylic acid, read-out: ED50 Acetylsalicilic acid s.c.
# [10] = po, 1 h, orally one hour before immobilization, read-out: ED50 Antiulcer os
# [11] = sc, 4 h, s.c. immediately before the immobilization, read-out: ED50 Antiulcer s.c.
Compound,"ED50 [2, 6]","ED50 [2, 7]","ED50 [1, 4]","ED50 [1, 5]",ED50 (gastric secretion),"ED50 [3, 8]","ED50 [3, 9]",ED50 (restraint ulcer; [10]),ED50 (restraint ulcer; [11]),LD50 (Toxicity (LD50) in mice)
"CCC1c2ncn(CC)c2CCN1C(=S)NC(C)C (stereo not drawn) [I C2 H5 C2 H5 i.Pr, 1,4-Diethyl-5-(N-isopropylthiocarbamoyl)-4,5,6,7-tetrahydroimidazo-[4,5-c]-pyridine]",> 400 mg/kg,> 200 mg/kg,10 mg/kg,0.5 mg/kg,6 mg/kg,0.7 mg/kg,0.7 mg/kg,3.5 mg/kg,2 mg/kg,> 2500 mg/kg
"CCC1c2ncn(C)c2CCN1C(=S)NC(C)C (stereo not drawn) [I CH3 C2 H5 i.Pr, 1-Methyl-4-ethyl-5-(N-isopropylthiocarbamoyl)-4,5,6,7-tetrahydroimidazo-[4,5-c]-pyridine]",> 100 mg/kg,> 100 mg/kg,40 mg/kg,20 mg/kg,20 mg/kg,20 mg/kg,10 mg/kg,2.5 mg/kg,4 mg/kg,> 2500 mg/kg
"CNC(=S)N1CCc2c(ncn2C)C1 [I CH3 H CH3, 1-Methyl-5-(N-methylthiocarbamoyl)-4,5,6,7-tetrahydroimidazo-[4,5-c]-pyridine]",> 100 mg/kg,> 100 mg/kg,,,30 mg/kg,,,25 mg/kg,15 mg/kg,
"CCC1c2c(ncn2CC)CCN1C(=S)NC(C)C (stereo not drawn) [II C2 H5 C2 H5 i.Pr, 3,4-diethyl-5-(N-isopropylthiocarbamoyl)-4,5,6,7-tetrahydroimidazo-[4,5-c]-pyridine, reference compound]",> 100 mg/kg,> 100 mg/kg,40 mg/kg,5.5 mg/kg,10 mg/kg,9 mg/kg,6.5 mg/kg,,,870 mg/kg
"CCC1c2c(ncn2C)CCN1C(=S)NC(C)C (stereo not drawn) [II CH3 C2 H5 i.Pr, 3-Methyl-4-ethyl-5-(N-isopropylthiocarbamoyl)-4,5,6,7-tetrahydroimidazo-[4,5-c]-pyridine, reference compound]",60 mg/kg,40 mg/kg,100 mg/kg,50 mg/kg,50 mg/kg,40 mg/kg,25 mg/kg,50 mg/kg,10 mg/kg,980 mg/kg

# The next lines start with results.
"ED50 [2, 6]","ED50 [2, 7]",Compound,"ED50 [1, 4]","ED50 [1, 5]",ED50 (gastric secretion),"ED50 [3, 8]","ED50 [3, 9]",ED50 (restraint ulcer; [10]),ED50 (restraint ulcer; [11]),LD50 (Toxicity (LD50) in mice)
100 mg/kg,25 mg/kg,"CC(C)NC(=S)N1CCc2c(ncn2C)C1 [I CH3 H i.Pr, 1-Methyl-5-(N-isopropylthiocarbamoyl)-4,5,6,7-tetrahydroimidazo-[4,5-c]-pyridine]",,,26 mg/kg,,,4.5 mg/kg,1.2 mg/kg,
100 mg/kg,50 mg/kg,"CNC(=S)N1CCc2ncn(C)c2C1 [II CH3 H CH3, reference compound]",,,50 mg/kg,,,50 mg/kg,50 mg/kg,
50 mg/kg,7 mg/kg,"CC(C)NC(=S)N1CCc2ncn(C)c2C1 [II CH3 H i.Pr, 3-Methyl-5-(N-isopropylthiocarbamoyl)-4,5,6,7-tetrahydroimidazo-[4,5-c]-pyridine]",,,,,,,,
85 mg/kg,65 mg/kg,C/N=C(\S)NCCSCc1[nH]cnc1C [Methiamide],,,,,,,,
